# Non-standard residues stand in square brackets, D forms with d. Residues, ends and D or L forms follow the SMILES beside them. ξ: configuration not given here. ξP = O=C(O)C1CCCN1
# Tested on: Escherichia coli
# Test: Antibacterial activity against Escherichia coli BW25113 assessed as prevention visible bacterial growth incubated for 18 hrs
# Assay type: functional
# Details: BW25113, 18 h
row,MIC99 [µM],Compound
1,16,CC(C)C[C@H](NC(=O)[C@H](CCCNC(=N)N)NC(=O)[C@@H]1CCCN1C(=O)[C@@H]1CCCN1C(=O)[C@H](CCCNC(=N)N)NC(=O)[C@@H]1CCCN1C(=O)[C@H](CCCNC(=N)N)NC(=O)C1CCCN1C(=O)[C@H](CCCNC(=N)N)NC(=O)[C@@H](N)CCCNC(=N)N)C(=O)N1CCC[C@H]1C(=O)N[C@@H](CCCNC(=N)N)C(=O)N1CCC[C@H]1C(=O)N[C@@H](CCCNC(=N)N)C(=O)N1CCC[C@H]1C(=O)N[C@@H](CCCNC(=N)N)C(=O)O (stereo not given in full) (H-RR[ξP]RPRPPRLPRPRPR-OH)
2,64,H-REIRPRPPRLPRPRPR-OH
3,16,H-RFIRPRPPRLPRPRPR-OH
4,16,H-RGIRPRPPRLPRPRPR-OH
5,16,H-RRFRPRPPRLPRPRPR-OH
6,16,H-RRGRPRPPRLPRPRPR-OH
7,16,H-RRIAPRPPRLPRPRPR-OH
8,16,H-RRIFPRPPRLPRPRPR-OH
9,16,H-RRIPPRPPRLPRPRPR-OH
10,8,H-RRIRARPPRLPRPRPR-OH
11,8,H-RRIRFRPPRLPRPRPR-OH
12,8,H-RRIRGRPPRLPRPRPR-OH
13,16,H-RRIRPFPPRLPRPRPR-OH
14,32,H-RRIRPGPPRLPRPRPR-OH
15,32,H-RRIRPPPPRLPRPRPR-OH
16,16,H-RRIRPRAPRLPRPRPR-OH
17,64,H-RRIRPRPERLPRPRPR-OH
18,16,H-RRIRPRPFRLPRPRPR-OH
19,> 64,H-RRIRPRPPELPRPRPR-OH
20,16,H-RRIRPRPPFLPRPRPR-OH
21,16,H-RRIRPRPPPLPRPRPR-OH
22,64,H-RRIRPRPPRGPRPRPR-OH
23,32,H-RRIRPRPPRLARPRPR-OH
24,64,H-RRIRPRPPRLERPRPR-OH
25,32,H-RRIRPRPPRLFRPRPR-OH
26,32,H-RRIRPRPPRLPAPRPR-OH
27,> 64,H-RRIRPRPPRLPEPRPR-OH
28,32,H-RRIRPRPPRLPGPRPR-OH

# The next lines start with the compound.
row,Compound,MIC99 [µM]
1,CC[C@H](C)[C@H](NC(=O)C1CCCN1C(=O)[C@@H](N)CCCNC(=N)N)C(=O)N[C@@H](CCCNC(=N)N)C(=O)N1CCC[C@H]1C(=O)N[C@@H](CCCNC(=N)N)C(=O)N1CCC[C@H]1C(=O)N1CCC[C@H]1C(=O)N[C@@H](CCCNC(=N)N)C(=O)N[C@@H](CC(C)C)C(=O)N1CCC[C@H]1C(=O)N[C@@H](CCCNC(=N)N)C(=O)N1CCC[C@H]1C(=O)N[C@@H](CCCNC(=N)N)C(=O)N1CCC[C@H]1C(=O)N[C@@H](CCCNC(=N)N)C(=O)O (stereo not given in full) (H-R[ξP]IRPRPPRLPRPRPR-OH),64
2,H-ARIRPRPPRLPRPRPR-OH,4
3,H-ERIRPRPPRLPRPRPR-OH,64
4,H-FRIRPRPPRLPRPRPR-OH,4
5,H-GRIRPRPPRLPRPRPR-OH,8
6,H-IRPLPPRRPRRPRRRP-OH,64
7,H-PRIRPRPPRLPRPRPR-OH,8
8,H-RAIRPRPPRLPRPRPR-OH,16
9,H-RRARPRPPRLPRPRPR-OH,16
10,H-RRERPRPPRLPRPRPR-OH,64
11,H-RRIEPRPPRLPRPRPR-OH,> 64
12,H-RRIGPRPPRLPRPRPR-OH,16
13,H-RRIRERPPRLPRPRPR-OH,32
14,H-RRIRPAPPRLPRPRPR-OH,16
15,H-RRIRPEPPRLPRPRPR-OH,> 64
16,H-RRIRPREPRLPRPRPR-OH,32
17,H-RRIRPRFPRLPRPRPR-OH,8
18,H-RRIRPRGPRLPRPRPR-OH,16
19,H-RRIRPRPARLPRPRPR-OH,16
20,H-RRIRPRPGRLPRPRPR-OH,16
21,H-RRIRPRPPALPRPRPR-OH,64
22,H-RRIRPRPPGLPRPRPR-OH,64
23,H-RRIRPRPPRAPRPRPR-OH,64
24,H-RRIRPRPPREPRPRPR-OH,> 64
25,H-RRIRPRPPRFPRPRPR-OH,32
26,H-RRIRPRPPRLGRPRPR-OH,32
27,H-RRIRPRPPRLPFPRPR-OH,16
